Test results published in patent publication US11793845B2, “Composition for ameliorating peripheral sensory neuropathy” (KINKI UNIVERSITY, priority 2016, dated 2023).
Values belong to the compound of their own block, whether it stands above or below them.

Assays:
Format in all cases: in vivo
[1] = system: Peripheral Sensory Neuropathy Induced by Bortezomib in Mice; assay: cold plate test, bortezomib-induced peripheral sensory neuropathy; details: bortezomib 1 mg/kg once a day alone; Day 3
Procedure: (§1) The effect of the Lentinus edodes mycelium extract on the paresthesia to cold stimulation was tested by performing the cold plate test. The mice in the three groups in the above (1) were put on a cold plate set to 10° C. and a response time for avoidance (a latency) was measured. The shorter latency means that the mouse avoids the cold stimulation of the cold plate more.
(§2) In the present test, the mice were divided into three groups by a difference in test objects. As in Example 1, male Balb/c mice of 6 to 7 weeks old were used. The mice were divided into a total of three groups, a control group, a bortezomib administration group, and a bortezomib and Lentinus edodes mycelium extract administration group (bortezomib+Lentinus edodes mycelium extract administration group).
(§3) Bortezomib was administered to each mouse once a day at a dose of 1 mg/kg. Further, the Lentinus edodes mycelium extract was administered to each mouse once a day at a dose of 2 g/kg.
Evaluation was performed in the same manner as in the test with oxaliplatin in Example 1. Referring to FIG. 8, the horizontal axis indicates the elapsed time after administration (days) and the vertical axis indicates the avoidance response time (seconds). Open circles with a solid line represent the control group. Filled circles with a solid line represent the group in which only bortezomib was administered. Open squares with a dash line represent the group in which bortezomib and the Lentinus edodes mycelium extract were administered at the same time (bortezomib+Lentinus edodes mycelium extract administration groups). When the difference with the control group was determined to be significant using a significance level of 5%, the data were marked by “*”.
(§4) In the present test, the mice were divided into six groups by a difference in test objects. As in Example 1, male Balb/c mice of 6 to 7 weeks old were used. […]

[2] = system: Peripheral Sensory Neuropathy Induced by Bortezomib in Mice; assay: von Frey test, bortezomib-induced peripheral sensory neuropathy; details: bortezomib 1 mg/kg once a week alone, compared with control group; three days after the administration
Excerpt: (§5) The mice in the three groups in the above (1) were put in a cage and a filament having a strength of 0.16 g was pressed on the plantar surface of the leg to measure the number of times (a score) of avoidance response.
as §2, §3
Further, the number of times of administration was set to once a week (on Day 0, Day 7, and Day 14) for bortezomib and daily (from Day 0 to Day 15) for the Lentinus edodes mycelium extract in both the von Frey test and the cold plate test below.
Evaluation was performed in the same manner as in the test with oxaliplatin in Example 1. Referring to FIG. 7, the horizontal axis indicates an elapsed time after administration (days) and the vertical axis indicates the avoidance response (scores). Open circles with a solid line represent the control group. Filled circles with a solid line represent the group in which only bortezomib was administered. Open squares with a dash line represent the group in which bortezomib and the Lentinus edodes mycelium extract were administered at the same time (bortezomib+Lentinus edodes mycelium extract administration group). When the difference with the control group was determined to be significant using a significance level of 5%, the data were marked by “*”.
as §4

[3] = system: Peripheral Sensory Neuropathy Induced by Oxaliplatin in Mice; assay: von Frey test, oxaliplatin-induced peripheral sensory neuropathy; details: oxaliplatin 6 mg/kg once a week alone, compared with control group; 0.16 g filament
Procedure: (§7) Male Balb/c mice of 6 to 7 weeks old were used. The mice were divided into three groups: a control group, an oxaliplatin administration group, and an oxaliplatin and Lentinus edodes mycelium extract administration group (oxaliplatin+Lentinus edodes mycelium extract administration group). Oxaliplatin was administered to each mouse once a day at a dose of 6 mg/kg. Further, the Lentinus edodes mycelium extract was administered to each mouse once a day at a dose of 2 g/kg.
(§8) Further, the number of times of administration was set to once a week (on Day 0, Day 7, and Day 14) for oxaliplatin and daily (from Day 0 to Day 15) for the Lentinus edodes mycelium extract in both the von Frey test and the cold plate test below.
The higher number of times of avoidance means that the mouse avoids the stimulation by the filament more. […] When the difference with the control group was determined to be significant using a significance level of 5%, the data were marked by “*”.

[4] = system: Peripheral Sensory Neuropathy Induced by Oxaliplatin in Mice; assay: cold plate test, oxaliplatin-induced peripheral sensory neuropathy; details: oxaliplatin 6 mg/kg once a week alone; Day 3; cold plate 10° C.
Procedure: as §7, §8
Oxaliplatin was administered to each mouse once a day at a dose of 6 mg/kg. Further, the Lentinus edodes mycelium extract was administered to each mouse once a day at a dose of 2 g/kg three days or six days after the administration of oxaliplatin. These groups are referred to as “Lentinus edodes mycelium extract 3-day delayed administration group” and “Lentinus edodes mycelium extract 6-day delayed administration group”, respectively.
Further, groups in which duloxetine was administered after the administration of oxaliplatin were prepared for comparison.

[5] = system: Peripheral Sensory Neuropathy Induced by Vincristine in Mice; assay: von Frey test, vincristine-induced peripheral sensory neuropathy; details: vincristine 0.2 mg/kg once a week alone, compared with control group; three days after the administration
Excerpt: as §5
as §2, with “vincristine” for “bortezomib”, “(vincristine+Lentinus” for “(bortezomib+Lentinus”
(§6) Vincristine was administered to each mouse once a day at a dose of 0.2 mg/kg. Further, the Lentinus edodes mycelium extract was administered to each mouse once a day at a dose of 2 g/kg.
Further, the number of times of administration was set to once a week (on Day 0, Day 7, and Day 14) for vincristine and daily (from Day 0 to Day 15) for the Lentinus edodes mycelium extract in both the von Frey test and the cold plate test below.
Evaluation was performed in the same manner as in the test with oxaliplatin in Example 1. Referring to FIG. 5, the horizontal axis indicates an elapsed time after administration (days) and the vertical axis indicates the avoidance response (scores). Open circles with a solid line represent the control group. Filled circles with a solid line represent the group in which only vincristine was administered. Open squares with a dash line represent the group in which vincristine and the Lentinus edodes mycelium extract were administered at the same time (vincristine+Lentinus edodes mycelium extract administration group). When the difference with the control group was determined to be significant using a significance level of 5%, the data were marked by “*”.
as §4

[6] = system: Peripheral Sensory Neuropathy Induced by Vincristine in Mice; assay: cold plate test, vincristine-induced peripheral sensory neuropathy; details: vincristine 0.2 mg/kg once a day alone; Day 3
Procedure: as §1
In the present test, the mice were divided into three groups by a difference in test objects. As in Example 1, male Balb/c mice of 6 to 7 weeks old were used. The mice were divided into a total of three groups, a control group, a vincristine
administration group, and a vincristine and Lentinus edodes mycelium extract administration group (vincristine+Lentinus edodes mycelium extract administration group).
as §6
Evaluation was performed in the same manner as in the test with oxaliplatin in Example 1. Referring to FIG. 6, the horizontal axis indicates the elapsed time after administration (days) and the vertical axis indicates the avoidance response time (seconds). Open circles with a solid line represent the control group. Filled circles with a solid line represent the group in which only vincristine was administered. Open squares with a dash line represent the group in which vincristine and the Lentinus edodes mycelium extract were administered at the same time (vincristine+Lentinus edodes mycelium extract administration group). When the difference with the control group was determined to be significant using a significance level of 5%, the data were marked by “*”.
as §4

latency to the cold stimulation (avoidance response time), cold plate test [1]: significantly reduced | avoidance response (scores), von Frey test [2]: significantly increased
Compound: CC(C)C[C@H](NC(=O)[C@H](Cc1ccccc1)NC(=O)c1cnccn1)B(O)O [bortezomib]

Compound: O=C1[O][Pt]2([NH][C@@H]3CCCC[C@H]3[NH]2)[O]C1=O [oxaliplatin]
avoidance response (scores), von Frey test [3]: significantly increased | latency to the cold stimulation (avoidance response time), cold plate test [4]: significantly reduced

avoidance response (scores), von Frey test [5]: significantly increased | latency to the cold stimulation (avoidance response time), cold plate test [6]: significantly reduced
Compound: CC[C@]1(O)C[C@H]2CN(CCc3c([nH]c4ccccc34)[C@@](C(=O)OC)(c3cc4c(cc3OC)N(C=O)[C@H]3[C@@](O)(C(=O)OC)[C@H](OC(C)=O)[C@]5(CC)C=CCN6CC[C@]43[C@@H]65)C2)C1 [vincristine]
